86 compounds from ChEMBL document CHEMBL1157539, “Thousands of chemical starting points for antimalarial lead identification” (Nature, 2010) can be followed below.

Structures are written as SMILES.

This assay has as its system Plasmodium falciparum. As to the kind of experiment: GSK_TCMDC: Inhibition of Plasmodium falciparum 3D7 in whole erythrocytes, using parasite LDH activity as an index of growth. The format is functional, organism-based. Conditions: Plasmodium falciparum, 3D7.
`Cc1ccc(Nc2nc(N/N=C/c3cccc(O)c3)nc(Nc3ccc([N+](=O)[O-])cc3)n2)cc1C` came in with an XC50 of 735 nM. For `C[C@@H](CC1CCCCC1)OC(=O)N[C@H]1CCN(C#N)C1` the value was 870 nM. The compound `CN=C(S)NN=C(C)c1ccccn1` had an XC50 of 272 nM.

In turn, `Cc1cc(NC(=O)NCCN2CCC(NC(=O)c3ccc(F)cc3)CC2)c2ccccc2n1` registered an XC50 of 331 nM. With `CS(=O)(=O)c1ccc(-n2nc(C(F)(F)F)cc2-c2ccc(C=NOCC(=O)O)o2)cc1`, the XC50 stood at 976 nM. For `CC(=NNC(=N)N)C(=O)Nc1ccc(Cl)c(Cl)c1` the value was 166 nM; for `O=C(c1ccc(-c2cccc(-c3nc4cc(C(F)(F)F)ccc4[nH]3)c2)cc1)N1CCCCC1CN1CCC(O)C1` (stereo unspecified), 652 nM; for `Cn1cncc1C(=O)Nc1cccc(-c2csc(-c3nc4ccccc4[nH]3)c2)c1`, 447 nM. For `CC1CNC(c2ccc(NC(=O)Nc3ccc(C4=NC(C)CN4)cc3)cc2)=N1` (stereo unspecified) the value was 379 nM.

`COc1ccc(CCOc2c(C)nc(N)nc2N)cc1OC`: the XC50 turned out to be 69.6 nM. With `O=c1c(NCCCN(Cc2ccc(F)cc2)c2ccccn2)c(NCc2cccnc2)c1=O` the figure was 61.7 nM. `Cc1cc(Nc2ncc(C#N)c(Nc3ccccc3C(N)=O)n2)ccc1N1CCN(C)CC1` gave an XC50 of 8.63 nM. As for `CC(O)C1CCCCN1C(=O)c1cccc(-c2ccc(-c3nc4ccccc4[nH]3)s2)c1` (stereo unspecified), the XC50 is 798 nM. For `Cc1ccc(F)cc1S(=O)(=O)NCC(C)c1ccc(NC(=O)Nc2cccc(F)c2)cc1` (stereo unspecified) the value was 973 nM.

The compound `CCOC(=O)C(C(=O)OCC)c1nc(C)ns1` gave an XC50 of 471 nM. For `CCCCOc1c(CCC)cc(Cc2cnc(N)nc2N)cc1CCC` the value was 629 nM. With `CC(NC(=O)c1ccc(O)c(-c2ccc(Cl)c(Cl)c2)c1)C(=O)NCCN1CCCCC1` (stereo unspecified) the figure was 868 nM. For `N=C(N)NC(=O)Nc1cc(Cl)c(Cl)c(C(F)(F)F)c1` the value was 611 nM; for `CO/C(=C\C=C\c1cc2cc(Cl)ccc2[nH]1)C(=O)NCCCN1CCN(c2cc(Cl)ccc2OC)CC1`, 877 nM; for `CC(NC(=O)c1ccc(O)c(-c2ccc(Cl)c(Cl)c2)c1)C(=O)NCCN1CCOCC1` (stereo unspecified), 959 nM. Consider `CC(C)(C(=O)Nc1ccc(C2CCC(NCC3CC3)CC2)c(Cl)c1)c1cccc(OC(F)F)c1` (stereo unspecified), for which the XC50 was 968 nM.

Turning to `OCc1c(Cl)cc(Cl)cc1CNCCCNc1nc2ccccc2[nH]1`, the XC50 came to 745 nM.

On to `N#Cc1cccc(C(O)CN(Cc2ccccc2)Cc2ccccc2)c1` (stereo unspecified), for which the XC50 came to 1270 nM. Compound `Cc1cc(F)ccc1Nc1nc(N(C)c2ccccc2)c2cccc(O)c2n1` returned an XC50 of 957 nM. For `CSc1ccc2ccccc2c1CNCCCCCCNCc1c(SC)ccc2ccccc12` the value was 797 nM; for `O=[N+]([O-])c1ccc(CNCCCCCCNCc2ccc([N+](=O)[O-])c3ccccc23)c2ccccc12`, 787 nM. With `CCN(CC)S(=O)(=O)c1cc(-c2ccc(=O)n(CC(=O)c3ccc(C)cc3)n2)ccc1C` the figure was 895 nM; with `COc1cc2nc(NCC3CCN(c4nc(N)c5cc(OC)c(OC)cc5n4)CC3)nc(N)c2cc1OC`, 776 nM. `O=C(/C=C/c1ccc(Cl)c(Cl)c1)NCCCCCN1CCCN(C(=O)Nc2ccc(C(F)(F)F)cc2)CC1`: the XC50 came out at 688 nM. In turn, `COc1cc(O)c2c(=O)c(OC)c(-c3cccc(Cl)c3OC3O[C@H](CO)[C@@H](O)[C@H](O)[C@H]3O)oc2c1OC` (stereo partly specified) gave an XC50 of 774 nM. For `O=C(CSc1cccc[n+]1[O-])c1ccc(Cc2ncc(C(F)(F)F)cc2Cl)s1` the value was 715 nM; for `COc1ccc2nccc([C@@H](O)CN3CCC(NC(=O)C(c4cc5ccccc5s4)N4CCN(c5ccccc5OC)CC4)CC3)c2c1` (stereo partly specified), 160 nM. Take `Cc1ccc(NC(=O)c2cc([N+](=O)[O-])ccc2NCc2cccnc2)cc1Cl`: the XC50 was determined as 1120 nM. With `CN(C(=O)c1snnc1-c1ccccc1)C1CCN(CCCCCNC(=O)/C=C/c2ccc(Cl)c(Cl)c2)CC1` the figure was 186 nM; with `CC(=O)Nc1ccc(-c2nc3ccc(-c4nc5ccc(NC(C)=O)cc5[nH]4)cc3[nH]2)cc1`, 242 nM; with `CC(O)c1cccc(-c2ccc(Nc3ccnc4cc(-c5nccs5)ccc34)cc2)c1` (stereo unspecified), 1010 nM. `N=C1N=C(N)NC2(CCCCC2)N1OCCCOc1cc(Cl)c(Cl)cc1Cl` had an XC50 of 3.2 nM. For `CN1CCN(c2cccc(-c3nnc(-c4cccc(OCC(=O)NCc5ccc(C(F)(F)F)cc5)c4)o3)c2)CC1` the value was 759 nM; for `CC(=O)N(C)C1CCN(Cc2ccc(-c3cccc(-c4nc5cc(F)ccc5[nH]4)c3)cc2)C1` (stereo unspecified), 596 nM; for `O=C(Nc1ccc([N+](=O)[O-])cc1)Nc1cc(C(F)(F)F)ccc1F`, 1070 nM.

`CCC(=O)OC(CCN(CC)CC)(c1ccccc1)c1ccccc1`: the XC50 is 369 nM. With `CN(C)c1ccc(CN2CCC(NC(=O)c3ccc(-c4ccc(N(C)C)cc4)s3)CC2)cc1` the figure was 1070 nM; with `COc1cccc(C(=O)NC(c2ccc(Cl)cc2Cl)c2cc(Cl)c3cccnc3c2O)c1` (stereo unspecified), 454 nM. `COc1ccc(NC(=O)/C=C/c2ccc(-c3ccc(-c4noc(C)n4)cc3)cc2)cc1OCCN(C)C` displayed an XC50 of 1370 nM. `CCCCCCC1(C)N=C(N)N=C(N)C1c1ccc(Cl)c(Cl)c1` (stereo unspecified) gave an XC50 of 132 nM. For `CCC1CCCCN1S(=O)(=O)c1ccc(OC)c(N2CCN(C(=O)C(Cl)(Cl)Cl)CC2)c1` (stereo unspecified) the value was 1120 nM; for `CCN1CCC(N(Cc2ccc(-c3ccc(C(F)(F)F)cc3)cc2)C(=O)CCCCn2c(CCc3cccc(F)c3F)nc(=O)c3ccccc32)CC1`, 989 nM. `NC(=O)c1ccc(C(=O)Nc2cccc(-c3ccc(-c4nc5cc(C(F)(F)F)ccc5[nH]4)cc3)c2)cc1` came in with an XC50 of 514 nM.

Take `O=C(Nc1cccc(CN2CCCN(Cc3cccc(Cl)c3)CC2)c1)c1ccc(Br)cc1`: the XC50 worked out at 944 nM. In turn, `CC(=O)Nc1cccc(CNCc2ccc(-c3cnc(N4CCCC(C)(C)C4)nc3)cc2)c1` gave an XC50 of 822 nM.

Turning to `COc1ccc2nccc([C@@H](O)CN3CCC(NCc4cnc5c(c4)NC(=O)CS5)CC3)c2c1`, the XC50 turned out to be 860 nM. Compound `CN1CCN=C1c1ccc(NC(=O)Nc2ccc(C3=NCCN3C)cc2)cc1` showed an XC50 of 379 nM. For `N#Cc1cccc(NC(=O)Nc2ccc(-c3ccc(-c4nc5cc(C(F)(F)F)ccc5[nH]4)cc3)cc2)c1` the value was 145 nM. Compound `Cc1noc(C)c1-c1cccc(CNCc2ccc(-c3ccc(-c4nc5cc(F)ccc5[nH]4)cc3)cc2)c1` had an XC50 of 212 nM. For `CN(c1ccc(NC(=O)Nc2cccc(Cl)c2)cc1)c1ccnc(N)n1` the value was 628 nM. The compound `CN1CCCN(Cc2ccc(-c3cccc(NC(=O)c4cccc(C#N)c4)c3)cc2)CC1` had an XC50 of 651 nM.

The compound `Cc1cccc2nc(-c3ccc(-c4cccc(NC(=O)CN5CCN(C)CC5)c4)s3)[nH]c12` came in with an XC50 of 826 nM. For `O=C(NCc1ccc(Cl)c(Cl)c1)c1ccc(C2CCN(Cc3ccc4[nH]cnc4c3)CC2)cc1` the value was 957 nM. With `Cc1ccc2nc(-c3ccc(C(=O)NC4CCN(Cc5ccccc5)CC4)s3)[nH]c2c1` the figure was 1010 nM. With `CCCCCOc1ccc(N2C(N)=NC(N)=NC2(C)C)cc1` the figure was 205 nM. In turn, `O=C(Nc1cccc(CN2CCCN(Cc3ccc4c(c3)OCO4)CC2)c1)c1ccc(Cl)c(Cl)c1` returned an XC50 of 893 nM.

`CCCCNCCOc1ccc(-c2nc(-c3ccccc3)c(-c3ccccc3)[nH]2)cc1`: the XC50 is 679 nM. For `CC(C)(CNC(=O)C1CCN(CCOCc2ccccc2)CC1)c1nc(-c2ccc(Cl)c(O)c2)c(-c2ccncc2)[nH]1` the value was 620 nM; for `Cc1nnsc1C(=O)Nc1cccc(-c2cccc(-c3nc4cc(C(F)(F)F)ccc4[nH]3)c2)c1`, 235 nM; for `Cc1ccc2[nH]c(C)cc(=NN=Cc3cccc(F)c3)c2c1`, 631 nM.

Turning to `Cc1cccc2nc(-c3ccc(-c4cccc(NC(=O)c5cncn5C)c4)s3)[nH]c12`, the XC50 is 645 nM. Compound `COc1ccc2nccc([C@@H](O)CN3CCC(NC(=O)c4ccc5cc[nH]c5c4)CC3)c2c1` returned an XC50 of 969 nM.

With `CS(=O)(=O)N1CC2(CCN(CCC(NC(=O)NCc3ccc(Cl)c(Cl)c3)c3ccc(Cl)c(Cl)c3)CC2)c2ccccc21` (stereo unspecified), the XC50 turned out to be 799 nM. For `Oc1ccc(-c2ccccc2)cc1CN1CCCCCC1` the value was 1170 nM. In turn, `CC(C)C1c2ccc(O)cc2CC2C(=O)N(C3CCCCC3)C(=O)N21` (stereo unspecified) yielded an XC50 of 884 nM. For `COc1cc(NC2=C(c3ccccc3)C(=O)c3ccccc32)ccn1` the value was 359 nM; for `CCC(N)(C#Cc1ccc(-c2c(C)[nH]c(C)c(Br)c2=O)cc1)CC`, 41.5 nM. For `Cn1cncc1-c1ccc2c(-c3ccsc3)cnc(N)c2c1` the value was 850 nM. In the case of `COc1ccc(-c2cc(C(=O)Nc3ccc(CCCN(C)Cc4ccc(OC)c(OC)c4)cc3)c3ccccc3n2)cc1`, the XC50 is 698 nM. As to `Cc1cc(OCC2CCCO2)c2cc(NC(=O)C(=O)Nc3ccc4nc(C)cc(OCC5CCCO5)c4c3)ccc2n1` (stereo unspecified), the XC50 was 804 nM.

`COc1csc2cc(Br)ccc12` came in with an XC50 of 861 nM.

For `O=C(/C=C/c1ccc(Cl)c(Cl)c1)NC1CCN(Cc2ccc(O)cc2)C1` (stereo unspecified), the XC50 came to 952 nM. With `Oc1cc(Nc2ccnc3cc(-c4cccc(CN5CCOCC5)c4)ccc23)c(F)cc1Cl` the figure was 207 nM; with `CN1CC(c2ccccc2)c2cc(O)c(CN3CCCCC3)cc2CC1Cc1ccccc1` (stereo unspecified), 176 nM; with `O=C1c2cc(I)ccc2SC1c1ccccc1` (stereo unspecified), 817 nM. The compound `COc1ccc2nccc([C@@H](O)CN3CCC(NCc4nc5c(cc4Cl)OCC(=O)N5)C(F)C3)c2c1` (stereo partly specified) had an XC50 of 1320 nM.

Turning to `NC1=NC2(CCCCC2)N(OCCCCCCN2C(=O)c3ccccc3C2=O)C(N)=N1`, the XC50 worked out at 871 nM. `O=C(Nc1cccc(CN2CCCN(Cc3ccccc3)CC2)c1)c1ccc(-c2ccccc2)cc1`: the XC50 is 1300 nM.

For `O=C(CCc1c[nH]cn1)Nc1ccc(-c2ccc(-c3nc4cc(F)ccc4[nH]3)cc2)cc1`, the XC50 amounted to 693 nM. For the compound `c1ccc2c(C3CCN(CCCCOc4ccc5c(c4)CCN(CC4CC4)CC5)CC3)c[nH]c2c1`, the XC50 was 982 nM. With `CC[C@H]1CN2CC[C@@H]1C[C@@H]2[C@@H](O)c1cc(-c2ccc(F)cc2)nc2ccc(OC)cc12` the figure was 114 nM.
